Our source for the GI50 values is US10160755B2 (Plexxikon Inc., priority 2015, dated 2018).

The test has as its target T1, BA/F3-FLT3-ITD + F691L cells (Homo sapiens, UniProt P36888, F691L, cells depend on it, form not given).
T1 sequence (P36888 1-993 F691L): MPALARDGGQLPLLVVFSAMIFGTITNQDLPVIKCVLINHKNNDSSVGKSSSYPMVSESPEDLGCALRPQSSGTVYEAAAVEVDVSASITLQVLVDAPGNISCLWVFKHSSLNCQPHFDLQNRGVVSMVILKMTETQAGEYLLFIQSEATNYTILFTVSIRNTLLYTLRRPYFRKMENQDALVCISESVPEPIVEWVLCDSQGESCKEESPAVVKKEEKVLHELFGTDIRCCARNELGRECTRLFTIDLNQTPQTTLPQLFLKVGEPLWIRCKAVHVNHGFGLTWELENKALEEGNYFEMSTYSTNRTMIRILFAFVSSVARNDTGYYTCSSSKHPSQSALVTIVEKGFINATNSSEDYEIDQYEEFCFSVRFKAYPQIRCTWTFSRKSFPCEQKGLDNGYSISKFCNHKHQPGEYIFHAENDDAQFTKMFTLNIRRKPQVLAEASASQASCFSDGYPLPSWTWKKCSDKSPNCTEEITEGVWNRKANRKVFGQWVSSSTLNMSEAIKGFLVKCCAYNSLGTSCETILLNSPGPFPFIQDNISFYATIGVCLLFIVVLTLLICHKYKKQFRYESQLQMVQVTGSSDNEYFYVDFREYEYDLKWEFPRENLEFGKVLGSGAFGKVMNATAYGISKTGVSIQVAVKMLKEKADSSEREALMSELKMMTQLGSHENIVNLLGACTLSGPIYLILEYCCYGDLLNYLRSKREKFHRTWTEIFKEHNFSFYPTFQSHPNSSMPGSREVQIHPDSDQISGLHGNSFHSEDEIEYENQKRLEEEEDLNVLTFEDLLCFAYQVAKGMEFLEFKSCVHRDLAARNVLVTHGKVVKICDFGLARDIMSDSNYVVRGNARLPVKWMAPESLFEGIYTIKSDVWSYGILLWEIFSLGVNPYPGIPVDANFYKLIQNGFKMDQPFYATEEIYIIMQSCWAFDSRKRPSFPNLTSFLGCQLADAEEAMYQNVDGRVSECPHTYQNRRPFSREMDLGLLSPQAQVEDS
Put plainly: BA/F3-FLT3-ITD + F691L cell proliferation assay (CellTiter-Glo). The class given is cell-based, murine. Conditions: BaF3 FLT3 ITD/F691L cells; read-out: Cell Activity (IC50 μM) BaF3_FLT3_ITD/F691L. A digest of the protocol:
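Three-day growth assay, IC50 from CellTiter-Glo ATP luminescence vs concentration. Compounds at 10 to 0.0046 μM (1:3 steps, final DMSO 0.2%) on 1×10^4 cells/well. Cells are IL-3-independent BA/F3 lines engineered to express full-length FLT3-ITD with the D835Y or the F691L mutation.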

Each structure is given as a SMILES string.

As for `CC(C)(C)n1cnc2ccc(-c3n[nH]c4ncc(-c5ccnc(N6CCOCC6)c5)cc34)cc21` [P-297, 4-[4-[3-(3-tert-butylbenzimidazol-5-yl)-1H-pyrazolo[3,4-b]pyridin-5-yl]-2-pyridyl]morpholine], the GI50 lay in the range of 0.0001 to 1 µM.
With `COc1cc(-c2cnc3[nH]cc(-c4ccc5ncn(C6(C(F)(F)F)CC6)c5c4)c3n2)ccn1` [P-312, 2-(2-methoxy-4-pyridyl)-7-[3-[1-(trifluoromethyl)cyclopropyl]benzimidazol-5-yl]-5H-pyrrolo[2,3-b]pyrazine] the figure was 0.0001 to 1 µM.
Next, `Cn1cnc2ccc(-c3c[nH]c4nnc(Cl)cc34)cc21` [P-313, 3-chloro-5-(3-methylbenzimidazol-5-yl)-7H-pyrrolo[2,3-c]pyridazine]: 0.0001 to 1 µM.
In the case of `Cc1ccc(-c2cnc3[nH]cc(-c4ccc5ncn(C(C)(C)C)c5c4)c3n2)cn1` [P-388, 7-(3-tert-butylbenzimidazol-5-yl)-2-(6-methyl-3-pyridyl)-5H-pyrrolo[2,3-b]pyrazine], the GI50 was in the range of 0.0001 to 1 µM.
Consider `CCN1CCN(c2cc(-c3cnc4[nH]cc(-c5ccc6ncn(C(C)(C)C)c6c5)c4n3)ccn2)CC1` [P-328, 7-(3-tert-butylbenzimidazol-5-yl)-2-[2-(4-ethylpiperazin-1-yl)-4-pyridyl]-5H-pyrrolo[2,3-b]pyrazine], for which the GI50 was 0.0001 to 1 µM.
As to `CC(C)(C)n1cnc2ccc(-c3c[nH]c4ncc(-c5ccc(N6CCOCC6)nc5)nc34)cc21` [P-326, 4-[5-[7-(3-tert-butylbenzimidazol-5-yl)-5H-pyrrolo[2,3-b]pyrazin-2-yl]-2-pyridyl]morpholine], the GI50 lay within 0.0001 to 1 µM.
With `CC(C)(C)n1cnc2ccc(-c3c[nH]c4ncc(-c5cccc(N6CCOCC6)c5)cc34)cc21` [P-316, 4-[3-[3-(3-tert-butylbenzimidazol-5-yl)-1H-pyrrolo[2,3-b]pyridin-5-yl]phenyl]morpholine] the figure was 0.0001 to 1 µM.
With `COc1ncc(-c2cnc3[nH]cc(-c4ccc5ncn(C6CCCNC6)c5c4)c3c2)cn1` (centres unmarked) [P-276, 5-(2-methoxypyrimidin-5-yl)-3-[3-(3-piperidyl)benzimidazol-5-yl]-1H-pyrrolo[2,3-b]pyridine] the figure was 10 to 200 µM; with `CC(C)(C)n1cnc2ccc(-c3c[nH]c4ncc(-c5cnc(N6CCC(F)(F)CC6)nc5)nc34)cc21` [P-357, 7-(3-tert-butylbenzimidazol-5-yl)-2-[2-(4,4-difluoro-1-piperidyl)pyrimidin-5-yl]-5H-pyrrolo[2,3-b]pyrazine], 0.0001 to 1 µM; with `CC(C)(C)n1cnc2ccc(-c3c[nH]c4ncc(-c5ccc(N6CCCCC6)cc5)nc34)cc21` [P-345, 7-(3-tert-butylbenzimidazol-5-yl)-2-[4-(1-piperidyl)phenyl]-5H-pyrrolo[2,3-b]pyrazine], 0.0001 to 1 µM.
With `O=S1(=O)CCCN1c1cc(-c2cnc3[nH]cc(-c4ccc5ncn(C6CCCNC6)c5c4)c3c2)ccn1` (centres unmarked) [P-311, 2-[4-[3-[3-(3-piperidyl)benzimidazol-5-yl]-1H-pyrrolo[2,3-b]pyridin-5-yl]-2-pyridyl]-1,2-thiazolidine 1,1-dioxide] the figure was 0.0001 to 1 µM.
As for `c1cc(-c2cnc3[nH]cc(-c4ccc5ncn(C6CCCNC6)c5c4)c3n2)cc(N2CCCCC2)c1` (centres unmarked) [P-337, 7-[3-(3-piperidyl)benzimidazol-5-yl]-2-[3-(1-piperidyl)phenyl]-5H-pyrrolo[2,3-b]pyrazine], the GI50 is 0.0001 to 1 µM.
Take `Cc1cc(C#Cc2cnc3[nH]cc(-c4ccc5ncn(C6CCCNC6)c5c4)c3n2)cc(C)n1` (centres unmarked) [P-283, 2-[2-(2,6-dimethyl-4-pyridyl)ethynyl]-7-[3-(3-piperidyl)benzimidazol-5-yl]-5H-pyrrolo[2,3-b]pyrazine]: the GI50 was in the range of 0.0001 to 1 µM.
With `CCN1CCN(c2ccc(-c3cnc4[nH]cc(-c5ccc6ncn(C7CCCNC7)c6c5)c4n3)cc2)CC1` (centres unmarked) [P-359, 2-[4-(4-ethylpiperazin-1-yl)phenyl]-7-[3-(3-piperidyl)benzimidazol-5-yl]-5H-pyrrolo[2,3-b]pyrazine] the figure was 0.0001 to 1 µM.
Next, `Cc1ncc(-c2cnc3[nH]cc(-c4ccc5ncn(C(C)(C)C)c5c4)c3n2)cn1` [P-289, 7-(3-tert-butylbenzimidazol-5-yl)-2-(2-methylpyrimidin-5-yl)-5H-pyrrolo[2,3-b]pyrazine]: 0.0001 to 1 µM; `COc1cc(-c2cnc3[nH]cc(-c4ccc5ncn(C6CCCN(S(C)(=O)=O)C6)c5c4)c3n2)ccn1` (centres unmarked) [P-281, 2-(2-methoxy-4-pyridyl)-7-[3-(1-methylsulfonyl-3-piperidyl)benzimidazol-5-yl]-5H-pyrrolo[2,3-b]pyrazine]: 0.0001 to 1 µM; `CC(C)(C)n1cnc2ccc(-c3c[nH]c4ncc(-c5cnc(F)c(F)c5)nc34)cc21` [P-390, 7-(3-tert-butylbenzimidazol-5-yl)-2-(5,6-difluoro-3-pyridyl)-5H-pyrrolo[2,3-b]pyrazine]: 0.0001 to 1 µM.
Next, `CN1CCN(c2cccc(-c3cnc4[nH]cc(-c5ccc6ncn(C7CCCNC7)c6c5)c4n3)c2)CC1` (centres unmarked) [P-332, 2-[3-(4-methylpiperazin-1-yl)phenyl]-7-[3-(3-piperidyl)benzimidazol-5-yl]-5H-pyrrolo[2,3-b]pyrazine]: 0.0001 to 1 µM; `CCN1CCN(c2ccc(-c3cnc4[nH]cc(-c5ccc6ncn(C(C)(C)C)c6c5)c4n3)cc2)CC1` [P-358, 7-(3-tert-butylbenzimidazol-5-yl)-2-[4-(4-ethylpiperazin-1-yl)phenyl]-5H-pyrrolo[2,3-b]pyrazine]: 0.0001 to 1 µM.
`CC(C)(C)n1cnc2ccc(-c3c[nH]c4ncc(-c5ccnc(N6CCCCS6(=O)=O)c5)nc34)cc21` [P-309, 2-[4-[7-(3-tert-butylbenzimidazol-5-yl)-5H-pyrrolo[2,3-b]pyrazin-2-yl]-2-pyridyl]thiazinane 1,1-dioxide]: the GI50 lay in the range of 0.0001 to 1 µM.
Next, `CN1CCN(c2ccc(-c3cnc4[nH]cc(-c5ccc6ncn(C7CCCNC7)c6c5)c4n3)cc2)CC1` (centres unmarked) [P-344, 2-[4-(4-methylpiperazin-1-yl)phenyl]-7-[3-(3-piperidyl)benzimidazol-5-yl]-5H-pyrrolo[2,3-b]pyrazine]: 0.0001 to 1 µM; `CC(C)(C)n1cnc2ccc(-c3c[nH]c4ncc(-c5ccnc(N6CCCS6(=O)=O)c5)nc34)cc21` [P-294, 2-[4-[7-(3-tert-butylbenzimidazol-5-yl)-5H-pyrrolo[2,3-b]pyrazin-2-yl]-2-pyridyl]-1,2-thiazolidine 1,1-dioxide]: 0.0001 to 1 µM.
With `CC(C)(C)n1cnc2ccc(-c3c[nH]c4ncc(-c5ccc(N6CCOCC6)nc5)cc34)cc21` [P-322, 4-[5-[3-(3-tert-butylbenzimidazol-5-yl)-1H-pyrrolo[2,3-b]pyridin-5-yl]-2-pyridyl]morpholine] the figure was 0.0001 to 1 µM; with `COc1ncc(-c2cnc3[nH]cc(-c4ccc5ncn(C(C)(C)C)c5c4)c3n2)cc1C#N` [P-405, 5-[7-(3-tert-butylbenzimidazol-5-yl)-5H-pyrrolo[2,3-b]pyrazin-2-yl]-2-methoxy-pyridine-3-carbonitrile], 0.0001 to 1 µM; with `CCN1CCN(c2cccc(-c3cnc4[nH]cc(-c5ccc6ncn(C7CCCNC7)c6c5)c4n3)c2)CC1` (centres unmarked) [P-329, 2-[3-(4-ethylpiperazin-1-yl)phenyl]-7-[3-(3-piperidyl)benzimidazol-5-yl]-5H-pyrrolo[2,3-b]pyrazine], 0.0001 to 1 µM.
Regarding `CC(C)(C)n1cnc2ccc(-c3c[nH]c4ncc(-c5ccc(N6CCC(F)(F)CC6)nc5)nc34)cc21` [P-356, 7-(3-tert-butylbenzimidazol-5-yl)-2-[6-(4,4-difluoro-1-piperidyl)-3-pyridyl]-5H-pyrrolo[2,3-b]pyrazine], the GI50 was 0.0001 to 1 µM.
With `COc1cc(-c2cnc3[nH]cc(-c4ccc5ncn(C(C)(C)C)c5c4)c3c2)c(OC)nn1` [P-292, 1-tert-butyl-6-[5-(3,6-dimethoxypyridazin-4-yl)-1H-pyrrolo[2,3-b]pyridin-3-yl]benzimidazole], the GI50 was 0.0001 to 1 µM.
Consider `CC(C)(C)n1cnc2ccc(-c3c[nH]c4ncc(-c5cnc(O)nc5)nc34)cc21` [P-363, 5-[7-(3-tert-butylbenzimidazol-5-yl)-5H-pyrrolo[2,3-b]pyrazin-2-yl]pyrimidin-2-ol], for which the GI50 is 0.0001 to 1 µM.
Next, `c1cc(-c2cnc3[nH]cc(-c4ccc5ncn(C6CCCNC6)c5c4)c3c2)cc(N2CCOCC2)c1` (centres unmarked) [P-317, 4-[3-[3-[3-(3-piperidyl)benzimidazol-5-yl]-1H-pyrrolo[2,3-b]pyridin-5-yl]phenyl]morpholine]: 0.0001 to 1 µM.
